Measured values taken from patent US8192962B2, “Processes for detecting toxic substances” (Daikin Industries, Ltd., priority 2001, dated 2012).

Test system: Detoxification protein genes
Test: DNA chip mRNA expression in yeast, detoxification protein genes (Table 8)
Type: cell-based, Saccharomyces cerevisiae S288C
Procedure: Yeast (Saccharomyces cerevisiae S288C (α SUC2mal mel gap2 CUP1)) were incubated at 25° C. on YPD medium (yeast extract 1%, polypepton 2%, glucose 2%). One of toxic chemical substances was added to the cells at logarithmic growth phase, and the cells were further incubated for two hours. Cells were cultured without any chemical substance in the same condition, and were used as control. Concentrations of the chemical substances were defined to inhibit the growth of the yeast but not lead to death.
After completion of the incubation, the culture was centrifuged to collect the cells. To the cells, sodium acetate buffer (50 mM sodium acetate, 10 mM EDTA, 1% SDS) was added, and the mixture was shaken at 65° C. for five minutes, followed by returning to room temperature, and obtaining the supernatant, of which the procedures were repeated two times. To the supernatant, ½ amount of a solution of phenol/chloroform was added, and the mixture was centrifuged to give a supernatant, which was added with an equal amount of chloroform, and the mixture was centrifuged to give a supernatant. To the supernatant, an equal amount of isopropanol containing 0.3 M sodium acetate was added, and the mixture was allowed to stand at room temperature for 30 minutes, after which the mixture was centrifuged to give a sediment of the whole RNAs. Seventy % ethanol was added to the sediment, and the mixture was again centrifuged to give a sediment, which was then dried and dissolved in water. mRNA was isolated from the whole RNAs as followings. In view of the fact that a poly A chain is attached to the 3′ terminus of mRNA, a polynucleotide having a poly T structure which was immobilized on the surface of latex beads was used to trap the mRNA, and then the mRNA was washed and eluted with spine column (Oligotex-dT30<Super>mRNA Purification Kit, Takara). Reverse transcription of the mRNA was conducted with a reverse transcriptase (Super Script II Reverse Transcriptase; catalogue No. 18064-014, GibcoBRL) using fluorescence-labeled nucleotides to give cDNAs that were introduced with Cy3-dUTP or Cy5-dUTP during the reverse transcription.
The labeled cDNAs were dissolved in TE buffer (10mM Tris-HCl/1 mM EDTA, pH8.0), and the solution was dropped on the DNA chip containing the whole genes of yeast (DNA Chip Research Inc. Japan) so that the cDNAs were hybridized on the DNA chip at 65° C. for over 12 hours. The fluoresces intensity of the DNA chip was read with a scanner, and the ratio relative to the fluorescence intensity resulting from the absence of chemical substance was estimated as the following, which is shown in Tables 1 to 9: […]

With `CN(C)C(=S)SSC(=S)N(C)C` [(10), Tetramethylthiuram disulfide] the “The level of expressed mRNA in the presence of chemical substance/The level of expressed mRNA in the absence of chemical substance” value (yeast gene YBL064C) was 3.8, the “The level of expressed mRNA in the presence of chemical substance/The level of expressed mRNA in the absence of chemical substance” value (yeast gene YBR008C) was 21.1 and the “The level of expressed mRNA in the presence of chemical substance/The level of expressed mRNA in the absence of chemical substance” value (yeast gene YBR145W) was 1.1. The “The level of expressed mRNA in the presence of chemical substance/The level of expressed mRNA in the absence of chemical substance” value (yeast gene YBR244W) was 3.0, the “The level of expressed mRNA in the presence of chemical substance/The level of expressed mRNA in the absence of chemical substance” value (yeast gene YBR293W) was 2.4 and the “The level of expressed mRNA in the presence of chemical substance/The level of expressed mRNA in the absence of chemical substance” value (yeast gene YCL035C) was 2.3. For the same compound, the “The level of expressed mRNA in the presence of chemical substance/The level of expressed mRNA in the absence of chemical substance” value (yeast gene YCL069W) was 6.9, the “The level of expressed mRNA in the presence of chemical substance/The level of expressed mRNA in the absence of chemical substance” value (yeast gene YCR083W) was 1.8 and the “The level of expressed mRNA in the presence of chemical substance/The level of expressed mRNA in the absence of chemical substance” value (yeast gene YDL100C) was 3.2. The “The level of expressed mRNA in the presence of chemical substance/The level of expressed mRNA in the absence of chemical substance” value (yeast gene YDL168W) was 4.7, the “The level of expressed mRNA in the presence of chemical substance/The level of expressed mRNA in the absence of chemical substance” value (yeast gene YDR256C) was 2.0 and the “The level of expressed mRNA in the presence of chemical substance/The level of expressed mRNA in the absence of chemical substance” value (yeast gene YDR453C) was 6.1. For the same compound, the “The level of expressed mRNA in the presence of chemical substance/The level of expressed mRNA in the absence of chemical substance” value (yeast gene YDR513W) was 3.1, the “The level of expressed mRNA in the presence of chemical substance/The level of expressed mRNA in the absence of chemical substance” value (yeast gene YDR538W) was 0.8 and the “The level of expressed mRNA in the presence of chemical substance/The level of expressed mRNA in the absence of chemical substance” value (yeast gene YEL027W) was 1.1. The “The level of expressed mRNA in the presence of chemical substance/The level of expressed mRNA in the absence of chemical substance” value (yeast gene YEL065W) was 4.9, the “The level of expressed mRNA in the presence of chemical substance/The level of expressed mRNA in the absence of chemical substance” value (yeast gene YER185W) was 1.2 and the “The level of expressed mRNA in the presence of chemical substance/The level of expressed mRNA in the absence of chemical substance” value (yeast gene YFL050C) was 1.6. The “The level of expressed mRNA in the presence of chemical substance/The level of expressed mRNA in the absence of chemical substance” value (yeast gene YGL013C) was 1.5, the “The level of expressed mRNA in the presence of chemical substance/The level of expressed mRNA in the absence of chemical substance” value (yeast gene YGL254W) was 1.8 and the “The level of expressed mRNA in the presence of chemical substance/The level of expressed mRNA in the absence of chemical substance” value (yeast gene YGR088W) was 3.2. The “The level of expressed mRNA in the presence of chemical substance/The level of expressed mRNA in the absence of chemical substance” value (yeast gene YGR138C) was 1.0, the “The level of expressed mRNA in the presence of chemical substance/The level of expressed mRNA in the absence of chemical substance” value (yeast gene YGR197C) was 3.2 and the “The level of expressed mRNA in the presence of chemical substance/The level of expressed mRNA in the absence of chemical substance” value (yeast gene YGR209C) was 6.3. For the same compound, the “The level of expressed mRNA in the presence of chemical substance/The level of expressed mRNA in the absence of chemical substance” value (yeast gene YGR224W) was 0.9, the “The level of expressed mRNA in the presence of chemical substance/The level of expressed mRNA in the absence of chemical substance” value (yeast gene YHL040C) was 11.3 and the “The level of expressed mRNA in the presence of chemical substance/The level of expressed mRNA in the absence of chemical substance” value (yeast gene YHL047C) was 11.9. The “The level of expressed mRNA in the presence of chemical substance/The level of expressed mRNA in the absence of chemical substance” value (yeast gene YHR008C) was 2.4, the “The level of expressed mRNA in the presence of chemical substance/The level of expressed mRNA in the absence of chemical substance” value (yeast gene YHR048W) was 2.7 and the “The level of expressed mRNA in the presence of chemical substance/The level of expressed mRNA in the absence of chemical substance” value (yeast gene YHR053C) was 2.9. For the same compound, the “The level of expressed mRNA in the presence of chemical substance/The level of expressed mRNA in the absence of chemical substance” value (yeast gene YHR055C) was 3.3, the “The level of expressed mRNA in the presence of chemical substance/The level of expressed mRNA in the absence of chemical substance” value (yeast gene YIR002C) was 1.4 and the “The level of expressed mRNA in the presence of chemical substance/The level of expressed mRNA in the absence of chemical substance” value (yeast gene YIR038C) was 4.5. The “The level of expressed mRNA in the presence of chemical substance/The level of expressed mRNA in the absence of chemical substance” value (yeast gene YJL101C) was 3.6, the “The level of expressed mRNA in the presence of chemical substance/The level of expressed mRNA in the absence of chemical substance” value (yeast gene YJR104C) was 2.8 and the “The level of expressed mRNA in the presence of chemical substance/The level of expressed mRNA in the absence of chemical substance” value (yeast gene YKL026C) was 3.0. The “The level of expressed mRNA in the presence of chemical substance/The level of expressed mRNA in the absence of chemical substance” value (yeast gene YKL064W) was 1.6, the “The level of expressed mRNA in the presence of chemical substance/The level of expressed mRNA in the absence of chemical substance” value (yeast gene YKR066C) was 2.4 and the “The level of expressed mRNA in the presence of chemical substance/The level of expressed mRNA in the absence of chemical substance” value (yeast gene YKR105C) was 5.2. For the same compound, the “The level of expressed mRNA in the presence of chemical substance/The level of expressed mRNA in the absence of chemical substance” value (yeast gene YKR106W) was 7.4, the “The level of expressed mRNA in the presence of chemical substance/The level of expressed mRNA in the absence of chemical substance” value (yeast gene YLL028W) was 2.3 and the “The level of expressed mRNA in the presence of chemical substance/The level of expressed mRNA in the absence of chemical substance” value (yeast gene YLL057C) was 2.9. The “The level of expressed mRNA in the presence of chemical substance/The level of expressed mRNA in the absence of chemical substance” value (yeast gene YLL060C) was 23.2, the “The level of expressed mRNA in the presence of chemical substance/The level of expressed mRNA in the absence of chemical substance” value (yeast gene YLR043C) was 2.5 and the “The level of expressed mRNA in the presence of chemical substance/The level of expressed mRNA in the absence of chemical substance” value (yeast gene YLR046C) was 1.4. For the same compound, the “The level of expressed mRNA in the presence of chemical substance/The level of expressed mRNA in the absence of chemical substance” value (yeast gene YML028W) was 1.8, the “The level of expressed mRNA in the presence of chemical substance/The level of expressed mRNA in the absence of chemical substance” value (yeast gene YML116W) was 3.1 and the “The level of expressed mRNA in the presence of chemical substance/The level of expressed mRNA in the absence of chemical substance” value (yeast gene YMR015C) was 0.3. The “The level of expressed mRNA in the presence of chemical substance/The level of expressed mRNA in the absence of chemical substance” value (yeast gene YMR038C) was 2.6, the “The level of expressed mRNA in the presence of chemical substance/The level of expressed mRNA in the absence of chemical substance” value (yeast gene YNL239W) was 6.0 and the “The level of expressed mRNA in the presence of chemical substance/The level of expressed mRNA in the absence of chemical substance” value (yeast gene YNL241C) was 7.4. For the same compound, the “The level of expressed mRNA in the presence of chemical substance/The level of expressed mRNA in the absence of chemical substance” value (yeast gene YNL259C) was 2.1, the “The level of expressed mRNA in the presence of chemical substance/The level of expressed mRNA in the absence of chemical substance” value (yeast gene YOL158C) was 6.1 and the “The level of expressed mRNA in the presence of chemical substance/The level of expressed mRNA in the absence of chemical substance” value (yeast gene YOR031W) was 1.3. The “The level of expressed mRNA in the presence of chemical substance/The level of expressed mRNA in the absence of chemical substance” value (yeast gene YOR153W) was 1.2, the “The level of expressed mRNA in the presence of chemical substance/The level of expressed mRNA in the absence of chemical substance” value (yeast gene YOR247W) was 0.4 and the “The level of expressed mRNA in the presence of chemical substance/The level of expressed mRNA in the absence of chemical substance” value (yeast gene YOR251C) was 0.8. The “The level of expressed mRNA in the presence of chemical substance/The level of expressed mRNA in the absence of chemical substance” value (yeast gene YOR273C) was 0.5, the “The level of expressed mRNA in the presence of chemical substance/The level of expressed mRNA in the absence of chemical substance” value (yeast gene YPL163C) was 0.4 and the “The level of expressed mRNA in the presence of chemical substance/The level of expressed mRNA in the absence of chemical substance” value (yeast gene YPR200C) was 3.8.
